Measurements as given in ChEMBL document CHEMBL1955821, “Biotransformations of 6',7'-dihydroxybergamottin and 6',7'-epoxybergamottin by the citrus-pathogenic fungi diminish cytochrome P450 3A4 inhibitory activity” (Bioorg Med Chem Lett, 2012).
pIC50: −log10 of the molar value.

Assays:
[1] = target: Cytochrome P450 3A4 (Homo sapiens, UniProt P08684); assay: Inhibition of CYP3A4 after 30 mins by fluorescence assay; assay type: ADME
[2] = system: Penicillium digitatum; assay: Drug metabolism in Penicillium digitatum assessed as 6,7-furano-5-(6',7'-dihydroxygeranyloxy)-2-hydroxy-hydrocoumaric acid level at 78.2 uM after 5 days; assay type: ADME, organism-based; settings: in vivo, 120 h
[3] = system: Penicillium digitatum; assay: Drug metabolism in Penicillium digitatum assessed as 6',7'-dihydroxybergamottin level at 78.2 uM after 5 days; assay type: ADME, organism-based; settings: in vivo, 120 h
[4] = Drug metabolism in Phomopsis citri assessed as 6,7-furano-5-(6',7'-dihydroxygeranyloxy)-2-hydroxy-hydrocoumaric acid level at 78.2 uM after 5 days; assay type: ADME; settings: diaporthe citri, 120 h
[5] = system: Lasiodiplodia theobromae; assay: Drug metabolism in Lasiodiplodia theobromae assessed as 6',7'-dihydroxybergamottin level at 78.2 uM after 5 days; assay type: ADME, organism-based; settings: in vivo, 120 h
[6] = Drug metabolism in Penicillium ulaiense assessed as decrease in 6',7'-dihydroxybergamottin level at 23.7 uM after 4 days; assay type: ADME; settings: 96 h
[7] = Drug metabolism in Penicillium ulaiense assessed as compound level at 78.2 uM after 5 days; assay type: ADME; settings: 120 h
[8] = system: Botrytis cinerea; assay: Drug metabolism in Botrytis cinerea assessed as 6,7-furano-5-(6',7'-dihydroxygeranyloxy)-2-hydroxy-hydrocoumaric acid level at 78.2 uM after 5 days; assay type: ADME, organism-based; settings: in vivo, 120 h
[9] = Drug metabolism in submerged cultures of Penicillium ulaiense assessed as decrease in compound concentration at 23.7 uM after 2 days; assay type: ADME; settings: read-out: Drug metabolism
[10] = Drug metabolism in Penicillium ulaiense assessed as 6,7-furano-5-(6',7'-dihydroxygeranyloxy)-2-hydroxy-hydrocoumaric acid level at 78.2 uM after 5 days; assay type: ADME; settings: 120 h
[11] = Drug metabolism in Penicillium ulaiense assessed as production of 6,7-furano-5-(6',7'-dihydroxygeranyloxy)-2-hydroxy-hydrocoumaric acid at 23.7 uM after 2 days; assay type: ADME; settings: 48 h
[12] = system: Botrytis cinerea; assay: Drug metabolism in Botrytis cinerea assessed as compound level at 78.2 uM after 5 days; assay type: ADME, organism-based; settings: in vivo, 120 h
[13] = Drug metabolism in Phomopsis citri assessed as compound level at 78.2 uM after 5 days; assay type: ADME; settings: diaporthe citri, 120 h
[14] = Drug metabolism in Penicillium ulaiense assessed as production of bergaptol at 23.7 uM up to 10 days; assay type: ADME; settings: 240 h
[15] = system: Lasiodiplodia theobromae; assay: Drug metabolism in Lasiodiplodia theobromae assessed as bergaptol level at 78.2 uM after 5 days; assay type: ADME, organism-based; settings: in vivo, 120 h
[16] = Drug metabolism in submerged cultures of Penicillium ulaiense assessed as decrease in compound concentration at 23.7 uM after 8 days; assay type: ADME; settings: 192 h
[17] = system: Geotrichum; assay: Drug metabolism in Geotrichum citri assessed as 6,7-furano-5-(6',7'-dihydroxygeranyloxy)-2-hydroxy-hydrocoumaric acid level at 78.2 uM after 5 days; assay type: ADME, organism-based; settings: in vivo, 120 h
[18] = Drug metabolism in Penicillium ulaiense assessed as bergaptol level at 78.2 uM after 5 days; assay type: ADME; settings: 120 h
[19] = system: Botrytis cinerea; assay: Drug metabolism in Botrytis cinerea assessed as 6',7'-dihydroxybergamottin level at 78.2 uM after 5 days; assay type: ADME, organism-based; settings: in vivo, 120 h
[20] = system: Geotrichum; assay: Drug metabolism in Geotrichum citri assessed as 6',7'-dihydroxybergamottin level at 78.2 uM after 5 days; assay type: ADME, organism-based; settings: in vivo, 120 h
[21] = Drug metabolism in Phomopsis citri assessed as 6',7'-dihydroxybergamottin level at 78.2 uM after 5 days; assay type: ADME; settings: diaporthe citri, 120 h
[22] = system: Geotrichum; assay: Drug metabolism in Geotrichum citri assessed as bergaptol level at 78.2 uM after 5 days; assay type: ADME, organism-based; settings: in vivo, 120 h
[23] = system: Geotrichum; assay: Drug metabolism in Geotrichum citri assessed as production of 6,7-furano-5-(6',7'-dihydroxygeranyloxy)-2-hydroxy-hydrocoumaric acid at 23.7 uM after 2 days; assay type: ADME, organism-based; settings: in vivo, 48 h
[24] = Drug metabolism in Phomopsis citri assessed as bergaptol level at 78.2 uM after 5 days; assay type: ADME; settings: diaporthe citri, 120 h
[25] = system: Lasiodiplodia theobromae; assay: Drug metabolism in Lasiodiplodia theobromae assessed as compound level at 78.2 uM after 5 days; assay type: ADME, organism-based; settings: in vivo, 120 h
[26] = system: Geotrichum; assay: Drug metabolism in Geotrichum citri assessed as compound level at 78.2 uM after 5 days; assay type: ADME, organism-based; settings: in vivo, 120 h
[27] = system: Penicillium digitatum; assay: Drug metabolism in Penicillium digitatum assessed as compound level at 78.2 uM after 5 days; assay type: ADME, organism-based; settings: in vivo, 120 h
[28] = Drug metabolism in Penicillium ulaiense assessed as 6',7'-dihydroxybergamottin level at 78.2 uM after 5 days; assay type: ADME; settings: 120 h
[29] = Drug metabolism in Penicillium ulaiense assessed as production of 6,7-furano-5-(6',7'-dihydroxygeranyloxy)-2-hydroxy-hydrocoumaric acid at 23.7 uM upto 10 days; assay type: ADME; settings: 240 h
[30] = system: Lasiodiplodia theobromae; assay: Drug metabolism in Lasiodiplodia theobromae assessed as 6,7-furano-5-(6',7'-dihydroxygeranyloxy)-2-hydroxy-hydrocoumaric acid level at 78.2 uM after 5 days; assay type: ADME, organism-based; settings: in vivo, 120 h

Chain of Cytochrome P450 3A4 (P08684 whole entry): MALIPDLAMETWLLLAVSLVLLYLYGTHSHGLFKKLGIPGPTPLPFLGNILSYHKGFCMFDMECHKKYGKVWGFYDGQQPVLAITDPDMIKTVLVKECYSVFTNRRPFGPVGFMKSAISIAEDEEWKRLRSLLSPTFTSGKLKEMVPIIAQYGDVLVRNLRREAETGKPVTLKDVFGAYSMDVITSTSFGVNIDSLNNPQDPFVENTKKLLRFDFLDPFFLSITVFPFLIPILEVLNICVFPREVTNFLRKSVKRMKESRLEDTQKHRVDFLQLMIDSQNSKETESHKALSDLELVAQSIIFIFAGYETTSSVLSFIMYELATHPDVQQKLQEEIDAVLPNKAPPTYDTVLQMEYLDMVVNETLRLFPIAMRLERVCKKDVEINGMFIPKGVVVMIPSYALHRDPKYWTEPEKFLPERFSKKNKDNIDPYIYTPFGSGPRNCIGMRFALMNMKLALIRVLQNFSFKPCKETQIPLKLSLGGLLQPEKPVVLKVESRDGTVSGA

Compound `C/C(=C\COc1c2ccoc2cc2oc(=O)ccc12)CC[C@@H](O)C(C)(C)O` has a pIC50 [1] of 6.09.
`C/C(=C\COc1c(CCC(=O)O)c(O)cc2occc12)CCC(O)C(C)(C)O` (stereo unspecified) showed a pIC50 [1] of under 3.76.
Compound `C/C(=C\COc1c2ccoc2cc2oc(=O)ccc12)CCC1OC1(C)C` (stereo unspecified) [6',7'-EPOXYBERGAMOTTIN] has a Drug metabolism [2] of 32 µM, a Drug metabolism [3] of 8.3 µM and a Drug metabolism [4] of 4.1 µM. The Drug metabolism [5] was 23.9 µM, the Drug metabolism [6] was “Active” and the Drug metabolism [7] was 0.7 µM. It also gave a Drug metabolism [8] of 25.1 µM, a metabolised at 48 h, 23.7 µM [9] of over 90% and a Drug metabolism [10] of 46.6 µM. For the same compound, the Drug metabolism [11] was under 0.5 µM, the Drug metabolism [12] was 1.3 µM and the Drug metabolism [13] was 1.3 µM. For the same compound, the Drug metabolism [14] was “Active”, the Drug metabolism [15] was 10.3 µM and the Drug metabolism [16] was “Active”. For the same compound, the Drug metabolism [17] was 24.3 µM, the Drug metabolism [18] was 0.3 µM and the Drug metabolism [19] was 5 µM. It also gave a Drug metabolism [20] of 7.3 µM, a Drug metabolism [21] of 3.3 µM and a Drug metabolism [22] of 3.9 µM. For the same compound, the Drug metabolism [23] was 7.4 µM, the Drug metabolism [24] was 0.7 µM and the Drug metabolism [25] was 1.1 µM. The Drug metabolism [26] was 8.2 µM, the Drug metabolism [27] was 0.1 µM and the Drug metabolism [28] was 0.5 µM. The Drug metabolism [29] was “Active” and the Drug metabolism [30] was 12.6 µM.
